# pIC50: −log10 of the molar value.
# Tests used:
# [1] = tested on: constitutive active colorectal cancer cell (CRC) Wnt pathway; assay: HCT116 Super TopFlash cellular reporter assay (constitutive active Wnt pathway); format: cell-based; settings: Homo sapiens, HCT-116, 36 h, HCT116 TOP reporter cells, luciferase expression, 36 hours incubation, 50 μM to 15 nM
# Description: In order to discover and characterize small molecules which inhibit the constitutive active colorectal cancer cell (CRC) Wnt pathway, a cellular reporter assay was employed. The corresponding assay cell was generated by transfection of the colorectal cancer cell line HCT116 (ATCC, #CCL-247) with the Super TopFlash vector (Morin, Science 275, 1997, 1787-1790; Molenaar et al., Cell 86 (3), 1996, 391-399). The HCT116 cell line is cultivated at 37° C. and 5% CO2 in DMEM/F-12 (Life Technologies, #11320-074), supplemented with 2 mM glutamine, 20 mM HEPES, 1.4 mM pyruvate, 0.15% Na-bicarbonate and 10% foetal bovine serum (GIBCO, #10270), this cancer cell line is pathophysiological relevant since it carries a deletion of position S45 in the β-catenin gene, leading to constitutive active Wnt signaling. Stable transfectants were generated by cotransfection with pcDNA3 and selection of stable transfected cells with 1 mg/ml G418.
# (§1) In a parallel approach, HCT116 cells were cotransfected with the FOP control vector and pcDNA3. The FOP vector is identical to the TOP construct, but it contains instead of functional TCF elements a randomized, non-functional sequence. For this transfection a stable transfected cell line was generated as well.
# (§2) In preparation of the assay, the two cell lines were plated 24 hrs before at 10000 cells per well of a 384 micro titre plate (MTP) in 30 μL growth medium. Selective inhibitory activity for small molecules on the mutated Wnt pathway was determined after parallel incubation of both (TOP and FOP) HCT116 reporter cell lines with a compound dilution series from 50 μM to 15 nM in steps of 3.16-fold dilutions in CAFTY buffer (130 mM NaCl, 5 mM KCl, 20 mM HEPES, 1 mM MgCl2, 5 mM NaHCO3, pH 7.4) containing 2 mM Ca^2+ and 0.01% BSA. The compounds were thereby serially prediluted in 100% DMSO and thereafter in addition 50 fold into the CAFTY compound dilution buffer (described above). From this dilution 10 μL were added to the cells in 30 μL growth medium and incubated for 36 hours at 37° C. and 5% CO2. Thereafter luciferase assay buffer (1:1 mixture of luciferase substrate buffer (20 mM Tricine, 2.67 mM MgSO4, 0.1 mM EDTA, 4 mM DTT, 270 μM Coenzyme A, 470 μM Luciferin, 530 μM ATP, ph adjusted to pH 7.8 with a sufficient volume of 5M NaOH) and Triton buffer (30 mL Triton X-100, 115 mL glycerol, 308 mg Dithiothreitol, 4.45 g Na2HPO4.2 H2O, 3.03 g Tris.HCL, ad 1 l H20, pH 7.8) was added as equal volume to the compound solution on the cells to determine luciferase expression as a measure of Wnt signaling activity in a luminometer.
# [2] = tested on: HCT116 FOP control reporter cell line; assay: HCT116 FOP control vector reporter assay (non-functional TCF elements); format: cell-based; settings: Homo sapiens, HCT-116, 36 h, HCT116 FOP control reporter cells, luciferase expression, 36 hours incubation, 50 μM to 15 nM; read-out: HCT116 FOPFlash IC50
# Description: as §1, §2
SMILES,pIC50 [1],pIC50 [2]
"COC(=O)c1cccc(-c2ccc(C(=O)Nc3ccc(OC)c(NC(=O)CN4CCOCC4)c3)cc2)c1 [Example 77, methyl 4′-({4-methoxy-3-[(morpholin-4-ylacetyl)amino]phenyl}carbamoyl)biphenyl-3-carboxylate]",5.40,≤ 4.30
"NC(C(=O)Nc1cc(NC(=O)c2ccc(-c3ccccc3)cc2)ccc1OC(F)(F)F)C(F)(F)F (stereo not drawn) [Example 135, N-{3-[(333-trifluoroalanyl)amino]-4-[trifluoromethoxy)phenyl) biphenyl-4-carboxamide]",6.23,≤ 4.30
"O=C(Nc1ccc(-c2ccccc2)cc1)c1ccc(Br)c(NC(=O)C2(N3CCOCC3)CC2)c1 [Example 152, N-(biphenyl-4-yl)-4-bromo-3-({[1-(morpholin-4-yl)cyclopropyl]carbonyl}amino)benzamide]",7.47,4.54
"COc1ccc(NC(=O)c2ccc(-c3ccccc3)cc2)cc1NC(=O)CN1CCOC[C@H]1CCO [Example 44, N-[3-({[(3R)-3-(2-hydroxyethyl)morpholin-4-yl]acetyl}amino)-4-methoxyphenyl]biphenyl-4-carboxamide]",5.54,≤ 4.30
"O=C(CN1CCOCC1)Nc1cc(C(=O)Nc2ccc(-c3ccccc3)cc2)ccc1OCc1ccccc1 [Example 24, 4-(benzyloxy)-N-(biphenyl-4-yl)-3-[(morpholin-4-ylacetyl)amino]benzamide]",6.44,≤ 4.30
"Cc1ccc(C(=O)Nc2ccc(-c3ccccc3)cc2)cc1NC(=O)C1(N2CCOCC2)CC1 [Example 159, N-(biphenyl-4-yl)-4-methyl-3-({[1-(morpholin-4-yl)cyclopropyl)carbonyl}amino)benzamide]",7.15,≤ 4.30
"COc1ccc(NC(=O)c2ccc(-c3ccccc3)cc2)cc1NC(=O)CN1CCC(O)CC1 [Example 45, N-(3-{[(4-hydroxypiperidin-1-yl)acetyl]amino}-4-methoxyphenyl)biphenyl-4-carboxamide]",5.41,≤ 4.30
"CC(C)(O)c1ccc(C(=O)Nc2ccc(-c3ccccc3)cc2)cc1NC(=O)CN1CCOCC1 [Example 117, N-(biphenyl-4-yl)-4-(2-hydroxypropan-2-yl)-3-[(morpholin-4-ylacetyl)amino]benzamide]",6.82,≤ 4.30
"COCc1ccc(C(=O)Nc2ccc(-c3ccccc3)cc2)cc1NC(=O)CN1CCOCC1 [Example 165, N-(biphenyl-4-yl)-4-(methoxymethyl)-3-[(morpholin-4-ylacetyl)amino]benzamide]",6.87,≤ 4.30
"COc1ccc(CC(=O)Nc2cc(NC(=O)c3ccc(-c4ccccc4)cc3)ccc2OC)cc1 [Example 144, N-(4-methoxy-3-{[(4-methoxyphenyl)acetyl]amino}phenyl)biphenyl-4-carboxamide]",5.41,≤ 4.30
"COc1ccc(NC(=O)c2ccc(-c3ccccc3)cc2)cc1NC(=O)CN1CCOCC1 [Example 52, N-{4-methoxy-3-[(morpholin-4-ylacetyl)amino]phenyl}biphenyl-4-carboxamide]",6.33,≤ 4.30
"COCc1ccc(C(=O)Nc2ccc(-c3ccccc3)cc2)cc1NC(=O)C1(N2CCN(C3CC3)CC2)CC1 [Example 149, N-(biphenyl-4-yl)-3-({[1-(4-cyclopropylpiperazin-1-yl)cyclopropyl]carbonyl}amino)-4-(methoxymethyl)benzamide]",7.88,4.82
"COc1cc(Cl)c(C(=O)Nc2ccc(-c3ccccc3)cc2)cc1NC(=O)C(C)N1CCOCC1 (stereo not drawn) [Example 5, N-(biphenyl-4-yl)-2-chloro-4-methoxy-5-{[2-(morpholin-4-yl)propanoyl]amino}benzamide]",6.29,≤ 4.30
"O=C(Nc1ccc(-c2ccccc2)cc1)c1ccc(F)c(NC(=O)C2(N3CCOCC3)CC2)c1 [Example 151, N-(biphenyl-4-yl)-4-fluoro-3-({[1-(morpholin-4-yl)cyclopropyl]carbonyl}amino)benzamide]",7.55,≤ 4.30
"CCN1CCN(CC(=O)Nc2cc(NC(=O)c3ccc(-c4ccccc4)cc3)ccc2OC)CC1 [Example 50, N-(3-{[(4-ethylpiperazin-1-yl)acetyl]amino}-4-methoxyphenyl)biphenyl-4-carboxamide]",5.44,4.64

# Next, values leading:
pIC50 [1],pIC50 [2],SMILES
6.52,≤ 4.30,"O=C(CN1C[C@H]2C[C@@H]1CO2)Nc1cc(C(=O)Nc2ccc(-c3ccccc3)cc2)ccc1OC1CC1 [Example 181, N-(biphenyl-4-yl)-4-(cyclopropyloxy)-3-{[(1R,4R)-2-oxa-5-azabicyclo[2.2.1]hept-5-ylacetyl]amino}benzamide]"
7.96,≤ 4.30,"COCCOc1ccc(C(=O)Nc2ccc(-c3ccccc3)cc2)cc1NC(=O)C1(N2CCOCC2)CC1 [Example 218, N-(biphenyl-4-yl)-4-(2-methoxyethoxy)-3-({[1-(morpholin-4-yl)cyclopropyl]carbonyl)amino)benzamide]"
6.86,4.39,"COCc1ccc(C(=O)Nc2ccc(-c3ccccc3)cc2)cc1NC(=O)C(C)N1CC2CCC(C1)O2 (single isomer, unassigned) [Example 167, N-(biphenyl-4-yl)-4-(methoxymethyl)-3-{[(2S*)-2-(8-oxa-3-azabicyclo[3.2.1]oct-3-yl)propanoyl]amino} benzamide]"
5.65,≤ 4.30,"O=C(CN1CCOCC1)Nc1cc(C(=O)Nc2ccc(-c3ccccc3)cc2)ccc1CO [Example 204, N-(biphenyl-4-yl)-4-(hydroxymethyl)-3-[(morpholin-4-ylacetyl)amino]benzamide]"
5.93,4.89,"COc1ccc(NC(=O)c2ccc(-c3cc(F)cc(F)c3)cc2F)cc1NC(=O)CN1CCOCC1 [Example 196, 3,3′,5′-trifluoro-N-{4-methoxy-3-[(morpholin-4-ylacetyl)amino]phenyl} biphenyl-4-carboxamide]"
5.59,≤ 4.30,"COc1ccc(C(=O)Nc2ccc(-c3ccccc3)cc2)cc1NC(=O)CN1CC(OC)C1 [Example 207, N-(biphenyl-4-yl)-4-methoxy-3-{[(3-methoxyazetidin-1-yl)acetyl]amino}benzamide]"
6.11,4.72,"COc1c(Cl)cc(C(=O)Nc2ccc(-c3ccccc3)cc2)cc1NC(=O)CN1CCN(C)CC1 [Example 215, N-(biphenyl-4-yl)-3-chloro-4-methoxy-5-{[(4-methylpiperazin-1-yl)acetyl]amino}benzamide]"
6.11,≤ 4.30,"O=C(CN1C[C@@H]2C[C@H]1CO2)Nc1cc(C(=O)Nc2ccc(-c3ccccc3)cc2)ccc1OC1CC1 [Example 192, N-(biphenyl-4-yl)-4-(cyclopropyloxy)-3-{[(1S,4S)-2-oxa-S-azabicyclo[2.2.1]hept-5-ylacetyl]amino}benzamide]"
6.46,≤ 4.30,"O=C(CN1CCOCC1)Nc1cc(C(=O)Nc2ccc(-c3ccccc3)cc2)ccc1OC(F)F [Example 184, N-(biphenyl-4-yl)-4-(difluoromethoxy)-3-[(morpholin-4-ylacetyl)amino]benzamide]"
6.67,≤ 4.30,"COC1CCN(CC(=O)Nc2cc(C(=O)Nc3ccc(-c4ccccc4)cc3)ccc2OC2CC2)C1 (stereo not drawn) [Example 174, N-(biphenyl-4-yl)-4-(cyclopropyloxy)-3-{[(3-methoxypyrrolidin-1-yl)acetyl)amino}benzamide]"
7.57,5.79,"COCCOCCOc1ccc(C(=O)Nc2ccc(-c3ccccc3)cc2)cc1NC(=O)C1(N2CCOCC2)CC1 [Example 217, N-(biphenyl-4-yl)-4-[2-(2-methoxyethoxy}ethoxy)-3-({[1-(morpholin-4-yl)cyclopropyl]carbonyl}amino)benzamide]"
5.76,≤ 4.30,"COc1ccc(NC(=O)c2ccc(-c3cc(F)cc(F)c3)cc2)cc1NC(=O)CN1CCOCC1 [Example 199, 3′,5′-difluoro-N-{4-methoxy-3-[(morpholin-4-ylacetyl)amino]phenyl} biphenyl-4-carboxamide]"

# Reference: patent publication US20160052898A1, “NOVEL COMPOUNDS” (BAYER PHARMA AKTIENGESELLSCHAFT, priority 2013, published 2016)
